Measured values as given in patent US6960580B2, “Nitrogenous heterocyclic substituted quinoline compounds” (Millennium Pharmaceuticals, Inc., priority 2001, dated 2005).

Tests used:
β-PDGFR [1] = target: T1, β-PDGFR (Homo sapiens, UniProt P09619); test: HR5 phosphorylation assay (CHO cells overexpressing human β-PDGFR, PDGF BB stimulation); assay type: cell-based; parameters: host or cells: CHO cells (HR5 line); settings: 8 nM PDGF BB, PDGF receptor phosphorylation
Description: • (1) HR5 Phosphorylation Assay
The HR5 cell line is a cell line of CHO cells engineered to overexpress human β-PDGFR, which cell line is available from the ATCC. The expression level of β-PDGFR in HR5 cells is around 5×10^4 receptor per cell. For the phosphorylation assay according to the invention, HR5 cells were grown to confluency in 96-well microtiter plates under standard tissue culture conditions, followed by serum-starvation for 16 hours. Quiescent cells were incubated at 37° C. without or with increasing concentrations of the test compound (0.01-30 uM) for 30 minutes followed by the addition of 8 nM PDGF BB for 10 minutes. Cells were lysed in 100 mM Tris, pH 7.5, 750 mM NaCl, 0.5% Triton X-100, 10 mM sodium pyrophosphate, 50 mM NaF, 10 ug/ml aprotinin, 10 ug/ml leupeptin, 1 mM phenylmethylsulfonyl fluoride, 1 mM sodium vanadate, and the lysate was cleared by centrifugation at 15,000× g for 5 minutes. Clarified lysates were transferred into a second microtiter plate in which the wells were previously coated with 500 ng/well of 1B5B11 anti-β-PDGFR mAb, and then incubated for two hours at room temperature. […] Wells were washed prior to adding ABTS (Sigma), and the rate of substrate formation was monitored at 650 nm.

β-PDGFR [2] = target: T1, β-PDGFR; test: MG63 phosphorylation assay (endogenous β-PDGFR phosphorylation, PDGF-BB stimulation with human plasma); assay type: cell-based; parameters: This assay is for measuring endogenous β-PDGFR phosphorylation in MG63 cells; endogenous in cells; host or cells: MG63 human osteosarcoma cells (ATCC); settings: MG63 human osteosarcoma cells; PDGF-BB stimulation in presence of 45% human plasma; PDGF receptor phosphorylation; read-out: MG63 w/human plasma IC50
Excerpt: The MG63 cell line is a human osteosarcoma tumor cell line available from the ATCC. This assay is for measuring endogenous β-PDGFR phosphorylation in MG63 cells. The assay conditions are the same as those described at for HR5 cell, except that PDGF-BB stimulation is provided in the presence or absence of 45% human plasma.

T1 sequence (P09619 33-1106): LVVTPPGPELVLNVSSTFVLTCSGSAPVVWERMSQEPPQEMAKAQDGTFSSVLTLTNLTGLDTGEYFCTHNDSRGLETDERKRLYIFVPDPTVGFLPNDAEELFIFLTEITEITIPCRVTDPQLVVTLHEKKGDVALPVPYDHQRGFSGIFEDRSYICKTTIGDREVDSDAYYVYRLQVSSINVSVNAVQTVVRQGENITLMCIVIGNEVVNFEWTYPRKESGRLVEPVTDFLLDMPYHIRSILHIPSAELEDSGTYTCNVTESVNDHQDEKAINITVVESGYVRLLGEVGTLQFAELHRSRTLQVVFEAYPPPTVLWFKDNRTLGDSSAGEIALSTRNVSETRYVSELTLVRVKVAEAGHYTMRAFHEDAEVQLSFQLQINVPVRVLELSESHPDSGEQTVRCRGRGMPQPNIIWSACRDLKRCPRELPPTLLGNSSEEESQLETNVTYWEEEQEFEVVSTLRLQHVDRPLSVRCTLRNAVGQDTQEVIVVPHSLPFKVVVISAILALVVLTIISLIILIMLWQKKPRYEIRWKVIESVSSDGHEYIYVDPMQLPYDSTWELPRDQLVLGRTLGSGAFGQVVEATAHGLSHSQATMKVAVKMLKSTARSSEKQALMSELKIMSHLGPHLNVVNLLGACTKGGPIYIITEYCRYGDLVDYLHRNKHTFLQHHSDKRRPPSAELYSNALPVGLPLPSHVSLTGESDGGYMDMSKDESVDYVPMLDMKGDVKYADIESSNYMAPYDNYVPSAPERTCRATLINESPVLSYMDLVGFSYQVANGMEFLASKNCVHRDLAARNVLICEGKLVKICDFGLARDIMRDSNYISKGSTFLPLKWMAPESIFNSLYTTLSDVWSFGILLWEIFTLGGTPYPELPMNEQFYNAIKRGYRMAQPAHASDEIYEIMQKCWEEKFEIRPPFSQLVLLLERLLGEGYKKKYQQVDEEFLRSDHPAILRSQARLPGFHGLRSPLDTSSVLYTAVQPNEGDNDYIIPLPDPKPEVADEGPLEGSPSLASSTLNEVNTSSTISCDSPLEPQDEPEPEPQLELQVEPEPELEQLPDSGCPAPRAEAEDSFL

IC50 (β-PDGFR [1]): 60 nM
IC50 (β-PDGFR [2]): 134 nM
SMILES: COc1cc2c(N3CCN(C(=O)Nc4ccc(OC(C)C)cc4)CC3)c(C#N)cnc2cc1OCCCN1CCCCC1 [Example 1, {4-[3-cyano-6-methoxy-7-(3-pipetidylpropoxy)quinolin-4-yl)piperazinyl}-N-[4-(methylethoxy)phenyl]carboxamide]
